Source: ChEMBL document CHEMBL4422668 (Bioorg Med Chem Lett, 2019)
Active and inactive are the calls of the source. The rule behind the calls is not given here. Non-standard residues stand in square brackets, D forms with d. Residues, ends and D or L forms follow the SMILES beside them. NMeR = CN[C@@H](CCCNC(=N)N)C(=O)O; NMeF = CN[C@@H](Cc1ccccc1)C(=O)O; NMeT = CN[C@H](C(=O)O)[C@@H](C)O; NMeN = CN[C@@H](CC(N)=O)C(=O)O; NMeL = CN[C@@H](CC(C)C)C(=O)O; NMeS = CN[C@@H](CO)C(=O)O

Experiments:
Streptococcus mutans [1] = experiment: Antagonist activity at Streptococcus mutans SAB249 ComD receptor assessed as inhibition of 18-CSP-induced cipB expression at 10 uM after 1 hr by beta-galactosidase reporter gene assay
Streptococcus mutans [2] = experiment: Agonist activity at Streptococcus mutans SAB249 ComD receptor assessed as increase in cipB expression at 10 uM after 1 hr by beta-galactosidase reporter gene assay relative to control
Streptococcus mutans [3] = experiment: Activation of comD quorum sensing system in Streptococcus mutans SMCC3 harboring comC deletion mutant assessed as reduction in inhibition zone of Streptococcus anginosus ATCC 33397 at 5 to 100 nM preincubated for 4 hrs followed by Streptococcus anginosus ATCC 33397 addition and measured after 24 hrs
[4] = Agonist activity at Streptococcus mutans SAB249 ComD receptor assessed as increase in cipB expression after 1 hr by beta-galactosidase reporter gene assay
Streptococcus mutans [5] = experiment: (§1) Activation of comD quorum sensing system in Streptococcus mutans SMCC3 harboring comC deletion mutant assessed as reduction in inhibition zone of Streptococcus anginosus ATCC 33397 at 0.25 nM preincubated for 4 hrs followed by Streptococcus anginosus ATCC 33397 addition and measured after 24 hrs
Streptococcus mutans [6] = experiment: as §1, with “0.25 to 1” for “0.25”

| Molecule | inhibition (Streptococcus mutans [1]) | Activity (Streptococcus mutans [2]) | also measured |
| --- | --- | --- | --- |
| CC(C)C[C@H](NC(=O)[C@H](CCCNC(=N)N)NC(=O)[C@H](Cc1ccccc1)NC(=O)[C@H](Cc1ccccc1)NC(=O)[C@@H](NC(=O)[C@H](CO)NC(=O)[C@H](CC(C)C)NC(=O)[C@@H](N)CO)[C@@H](C)O)C(=O)N[C@@H](Cc1ccccc1)C(=O)N[C@@H](CC(N)=O)C(=O)N[C@@H](CCCNC(=N)N)C(=O)N[C@@H](CO)C(=O)N(C)[C@@H](Cc1ccccc1)C(=O)N[C@H](C(=O)N[C@@H](CCC(N)=O)C(=O)N[C@@H](C)C(=O)O)[C@@H](C)O (H-SLSTFFRLFNRS[NMeF]TQA-OH) | inactive | 17% | – |
| CC(C)C[C@H](NC(=O)[C@H](CCCNC(=N)N)NC(=O)[C@H](Cc1ccccc1)NC(=O)[C@H](Cc1ccccc1)NC(=O)[C@@H](NC(=O)[C@H](CO)NC(=O)[C@H](CC(C)C)NC(=O)[C@@H](N)CO)[C@@H](C)O)C(=O)N[C@@H](Cc1ccccc1)C(=O)N[C@@H](CC(N)=O)C(=O)N[C@@H](CCCNC(=N)N)C(=O)N(C)[C@@H](CO)C(=O)N[C@@H](Cc1ccccc1)C(=O)N[C@H](C(=O)N[C@@H](CCC(N)=O)C(=O)N[C@@H](C)C(=O)O)[C@@H](C)O (H-SLSTFFRLFNR[NMeS]FTQA-OH) | inactive | 12% | – |
| CC(C)C[C@H](NC(=O)[C@H](CCCNC(=N)N)NC(=O)[C@H](Cc1ccccc1)NC(=O)[C@H](Cc1ccccc1)NC(=O)[C@@H](NC(=O)[C@H](CO)NC(=O)[C@H](CC(C)C)NC(=O)[C@@H](N)CO)[C@@H](C)O)C(=O)N[C@@H](Cc1ccccc1)C(=O)N[C@@H](CC(N)=O)C(=O)N(C)[C@@H](CCCNC(=N)N)C(=O)N[C@@H](CO)C(=O)N[C@@H](Cc1ccccc1)C(=O)N[C@H](C(=O)N[C@@H](CCC(N)=O)C(=O)N[C@@H](C)C(=O)O)[C@@H](C)O (H-SLSTFFRLFN[NMeR]SFTQA-OH) | inactive | 5% | inhibition (Streptococcus mutans [3]): Active |
| CC(C)C[C@H](NC(=O)[C@H](CCCNC(=N)N)NC(=O)[C@H](Cc1ccccc1)NC(=O)[C@H](Cc1ccccc1)NC(=O)[C@@H](NC(=O)[C@H](CO)NC(=O)[C@H](CC(C)C)NC(=O)[C@@H](N)CO)[C@@H](C)O)C(=O)N[C@@H](Cc1ccccc1)C(=O)N(C)[C@@H](CC(N)=O)C(=O)N[C@@H](CCCNC(=N)N)C(=O)N[C@@H](CO)C(=O)N[C@@H](Cc1ccccc1)C(=O)N[C@H](C(=O)N[C@@H](CCC(N)=O)C(=O)N[C@@H](C)C(=O)O)[C@@H](C)O (H-SLSTFFRLF[NMeN]RSFTQA-OH) | inactive | 11% | – |
| CC(C)C[C@H](NC(=O)[C@@H](N)CO)C(=O)N[C@@H](CO)C(=O)N[C@H](C(=O)N[C@@H](Cc1ccccc1)C(=O)N[C@@H](Cc1ccccc1)C(=O)N[C@@H](CCCNC(=N)N)C(=O)N[C@@H](CC(C)C)C(=O)N(C)[C@@H](Cc1ccccc1)C(=O)N[C@@H](CC(N)=O)C(=O)N[C@@H](CCCNC(=N)N)C(=O)N[C@@H](CO)C(=O)N[C@@H](Cc1ccccc1)C(=O)N[C@H](C(=O)N[C@@H](CCC(N)=O)C(=O)N[C@@H](C)C(=O)O)[C@@H](C)O)[C@@H](C)O (H-SLSTFFRL[NMeF]NRSFTQA-OH) | inactive | 0% | inhibition (Streptococcus mutans [3]): Active |
| CC(C)C[C@H](NC(=O)[C@@H](N)CO)C(=O)N[C@@H](CO)C(=O)N[C@H](C(=O)N[C@@H](Cc1ccccc1)C(=O)N[C@@H](Cc1ccccc1)C(=O)N(C)[C@@H](CCCNC(=N)N)C(=O)N[C@@H](CC(C)C)C(=O)N[C@@H](Cc1ccccc1)C(=O)N[C@@H](CC(N)=O)C(=O)N[C@@H](CCCNC(=N)N)C(=O)N[C@@H](CO)C(=O)N[C@@H](Cc1ccccc1)C(=O)N[C@H](C(=O)N[C@@H](CCC(N)=O)C(=O)N[C@@H](C)C(=O)O)[C@@H](C)O)[C@@H](C)O (H-SLSTFF[NMeR]LFNRSFTQA-OH) | inactive | 45% | – |
| CC(C)C[C@H](NC(=O)[C@H](CCCNC(=N)N)NC(=O)[C@H](Cc1ccccc1)NC(=O)[C@H](Cc1ccccc1)NC(=O)[C@H]([C@@H](C)O)N(C)C(=O)[C@H](CO)NC(=O)[C@H](CC(C)C)NC(=O)[C@@H](N)CO)C(=O)N[C@@H](Cc1ccccc1)C(=O)N[C@@H](CC(N)=O)C(=O)N[C@@H](CCCNC(=N)N)C(=O)N[C@@H](CO)C(=O)N[C@@H](Cc1ccccc1)C(=O)N[C@H](C(=O)N[C@@H](CCC(N)=O)C(=O)N[C@@H](C)C(=O)O)[C@@H](C)O (H-SLS[NMeT]FFRLFNRSFTQA-OH) | – | – | EC50 [4]: > 1000 nM |
| H-GSLSAFFRAFNAAFTAA-OH | – | – | inhibition (Streptococcus mutans [3]): Active; inhibition (Streptococcus mutans [5]): Active |
| H-GSLSAFFRAFNAAFTQA-OH | – | – | inhibition (Streptococcus mutans [3]): Active; inhibition (Streptococcus mutans [5]): Active |
| H-GSLSTFFRLFNRSFTQA-OH | – | – | EC50 [4]: 4.8 nM |
| H-SGSLSTFFRLFNRSFTQA-OH | – | 100% | EC50 [4]: 6.2 nM; inhibition (Streptococcus mutans [6]): inactive |
| H-SLSTFFRLFNRSFTQA-OH | – | 100% | EC50 [4]: 7.9 nM |

Continued, in another order:

| inhibition (Streptococcus mutans [1]) | Activity (Streptococcus mutans [2]) | Molecule | also measured |
| --- | --- | --- | --- |
| inactive | 38% | CC(C)C[C@H](NC(=O)[C@H](CCCNC(=N)N)NC(=O)[C@H](Cc1ccccc1)NC(=O)[C@H](Cc1ccccc1)NC(=O)[C@@H](NC(=O)[C@H](CO)NC(=O)[C@H](CC(C)C)NC(=O)[C@@H](N)CO)[C@@H](C)O)C(=O)N[C@@H](Cc1ccccc1)C(=O)N[C@@H](CC(N)=O)C(=O)N[C@@H](CCCNC(=N)N)C(=O)N[C@@H](CO)C(=O)N[C@@H](Cc1ccccc1)C(=O)N(C)[C@H](C(=O)N[C@@H](CCC(N)=O)C(=O)N[C@@H](C)C(=O)O)[C@@H](C)O (H-SLSTFFRLFNRSF[NMeT]QA-OH) | – |
| inactive | 29% | CC(C)C[C@H](NC(=O)[C@@H](N)CO)C(=O)N[C@@H](CO)C(=O)N[C@H](C(=O)N[C@@H](Cc1ccccc1)C(=O)N[C@@H](Cc1ccccc1)C(=O)N[C@@H](CCCNC(=N)N)C(=O)N(C)[C@@H](CC(C)C)C(=O)N[C@@H](Cc1ccccc1)C(=O)N[C@@H](CC(N)=O)C(=O)N[C@@H](CCCNC(=N)N)C(=O)N[C@@H](CO)C(=O)N[C@@H](Cc1ccccc1)C(=O)N[C@H](C(=O)N[C@@H](CCC(N)=O)C(=O)N[C@@H](C)C(=O)O)[C@@H](C)O)[C@@H](C)O (H-SLSTFFR[NMeL]FNRSFTQA-OH) | – |
